Test results reported in patent publication US20260022143A1, “Cyclic Peptide Inhibitors of IL-23” (JANSSEN PHARMACEUTICA NV, priority 2022, published 2026).
Where two headings read alike, the source gives them in different places. Positions of bridges follow the written chain, without caps; N, C: chain ends. Non-standard residues stand in square brackets, D forms with d. Residues, ends and D or L forms follow the SMILES beside them. *: point of attachment. Trp(7-Me) = Cc1cccc2c(C[C@H](N)C(=O)O)c[nH]c12; 2Nal = N[C@@H](Cc1ccc2ccccc2c1)C(=O)O; 3Pal = N[C@@H](Cc1cccnc1)C(=O)O; Lys(Me) = CNCCCC[C@H](N)C(=O)O; Pen = CC(C)(S)[C@H](N)C(=O)O; Thp = NC1(C(=O)O)CCOCC1; Sar = CNCC(=O)O; X2 = CNCC*

Key:
IL-23R = target: T1, IL-23R (Homo sapiens, UniProt Q5VWK5); experiment: IL23R Reporter Assay; format: cell-based; settings: HEK293 cells containing IL-23R, IL-12RP1 and STAT-inducible firefly luciferase reporter; 10 ng/mL IL-23 (EC90); 5 h at 37° C.; read-out: IL23R Reporter Assay
T1 construct: host or cells: HEK293
T1 sequence (Q5VWK5 24-629): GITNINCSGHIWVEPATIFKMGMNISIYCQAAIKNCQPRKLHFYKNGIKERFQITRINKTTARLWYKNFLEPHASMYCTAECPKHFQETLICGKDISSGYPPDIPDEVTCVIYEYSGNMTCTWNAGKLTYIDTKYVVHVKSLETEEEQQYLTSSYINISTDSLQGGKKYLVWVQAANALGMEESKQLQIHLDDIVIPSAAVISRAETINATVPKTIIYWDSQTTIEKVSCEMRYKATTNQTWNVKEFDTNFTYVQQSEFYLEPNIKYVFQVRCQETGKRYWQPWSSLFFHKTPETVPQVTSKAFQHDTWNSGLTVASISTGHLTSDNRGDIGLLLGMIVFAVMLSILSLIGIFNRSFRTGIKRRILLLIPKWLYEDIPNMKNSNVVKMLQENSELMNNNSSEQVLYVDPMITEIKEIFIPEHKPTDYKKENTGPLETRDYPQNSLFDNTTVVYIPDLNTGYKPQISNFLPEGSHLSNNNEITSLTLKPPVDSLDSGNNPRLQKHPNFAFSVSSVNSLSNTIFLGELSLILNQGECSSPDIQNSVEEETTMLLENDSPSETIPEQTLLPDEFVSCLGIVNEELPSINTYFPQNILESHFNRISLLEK

[1] = Exposed Polar Surface Area (EPSA); format: physicochemical; settings: SFC on Chirex 3014 column, sample 1 mM DMSO stock
Outline: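 Compounds, as 1 mM DMSO stock, were injected in duplicate onto an SFC Chirex 3014 column at 35 °C and eluted with a CO2/methanol (20 mM ammonium formate) gradient. EPSA values in Å^2 were derived from retention times using a linear fit to eight calibration standards, reinjected every 20 compounds.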

Compound	IC50 (IL-23R) [nM]	EPSA ([1]; read-out: EPSA) [A^2]	EPSA [1] [Å^2]	EPSA ([1]; listed as 2) [Å^2]
CC(=O)N[C@@H]1C(=O)N[C@@H](CC(=O)N(C)C)C(=O)N[C@@H]([C@@H](C)O)C(=O)N[C@@H](Cc2c[nH]c3c(C)cccc23)C(=O)N[C@H](COCCOCC[N+](C)(C)C)C(=O)N[C@H](C(=O)N[C@@H](Cc2ccc(OCCOCCOCC[N+](C)(C)C)cc2)C(=O)N[C@@H](Cc2ccc3ccccc3c2)C(=O)NC2(C(=O)N[C@@H](COCCOCC[N+](C)(C)C)C(=O)N[C@@H](CC(N)=O)C(=O)N[C@@H](Cc3cccnc3)C(=O)N(C)CC(=O)N(C)C)CCOCC2)C(C)(C)SSC1(C)C (relative stereo) [compound 255, MeCO-Pen(3)-N(N(Me)2)-T-7MeW-APEG2Ser(R*)-Pen(3)-APEG3F-2Nal-THP-APEG2Ser(S*)-N-3Pya-Sar-CON(Me)2]	22	141	–	–
CC(=O)N[C@@H]1C(=O)N[C@@H](CC(=O)N(C)C)C(=O)N[C@@H]([C@@H](C)O)C(=O)N[C@@H](Cc2c[nH]c3c(C)cccc23)C(=O)N[C@H](COCCOCC[N+](C)(C)C)C(=O)N[C@H](C(=O)N[C@@H](Cc2ccc(OCCOCCOCC[N+](C)(C)C)cc2)C(=O)N[C@@H](Cc2ccc3ccccc3c2)C(=O)NC2(C(=O)N[C@@H](CCCCN(C)C(C)=O)C(=O)N[C@@H](CC(N)=O)C(=O)N[C@@H](Cc3cccnc3)C(=O)N(C)CC(=O)N(C)C)CCOCC2)C(C)(C)SSC1(C)C (relative stereo) [compound 268, MeCO-Pen(3)-N(N(Me)2)-T-7MeW-APEG2Ser(R*)-Pen(3)-APEG3F-2Nal-THP-K(NMeAc)-N-3Pya-Sar-CON(Me)2]	110	148	–	–
CC(=O)N[C@@H](COCCOCC[N+](C)(C)C)C(=O)N[C@@H]1C(=O)N[C@@H](CC(=O)N(C)C)C(=O)N[C@@H]([C@@H](C)O)C(=O)N[C@@H](Cc2c[nH]c3c(C)cccc23)C(=O)N[C@@H](CCCCN(C)C(C)=O)C(=O)N[C@H](C(=O)N[C@@H](Cc2ccc(OCCOCCOCC[N+](C)(C)C)cc2)C(=O)N[C@@H](Cc2ccc3ccccc3c2)C(=O)NC2(C(=O)N[C@@H](CCCCN(C)C(C)=O)C(=O)N[C@@H](CC(N)=O)C(=O)N[C@@H](Cc3cccnc3)C(=O)N(C)CC(=O)N(C)C)CCOCC2)C(C)(C)SSC1(C)C (relative stereo) [compound 318, MeCO-APEG2Ser(S*)-Pen(3)-N(N(Me)2)-T-7MeW-K(NMeAc)-Pen(3)-APEG3F-2Nal-THP-K(NMeAc)-N-3Pya-Sar-CON(Me)2]	0.89	151	–	–
CC(=O)NC(COCCOCC[N+](C)(C)C)C(=O)N[C@@H]1C(=O)N[C@@H](CC(=O)N(C)C)C(=O)N[C@@H]([C@@H](C)O)C(=O)N[C@@H](Cc2c[nH]c3c(C)cccc23)C(=O)N[C@@H](CCCCN(C)C(C)=O)C(=O)N[C@H](C(=O)N[C@@H](Cc2ccc(OCCOCCOCC[N+](C)(C)C)cc2)C(=O)N[C@@H](Cc2ccc3ccccc3c2)C(=O)NC2(C(=O)N[C@@H](CCCCN(C)C(C)=O)C(=O)N[C@@H](CC(N)=O)C(=O)N[C@@H](Cc3cccnc3)C(=O)N(C)CC(=O)N(C)C)CCOCC2)C(C)(C)SSC1(C)C (relative stereo) [compound 319, MeCO-APEG2Ser(R*)-Pen(3)-N(N(Me)2)-T-7MeW-K(NMeAc)-Pen(3)-APEG3F-2Nal-THP-K(NMeAc)-N-3Pya-Sar-CON(Me)2]	1.8	151	–	–
CC(=O)N(C)CCCC[C@@H]1NC(=O)[C@H](Cc2c[nH]c3c(C)cccc23)NC(=O)[C@H]([C@@H](C)O)NC(=O)[C@H](CC(=O)N(C)C)NC(=O)[C@@H](NC(=O)CCOCCOCC[N+](C)(C)C)C(C)(C)SSC(C)(C)[C@@H](C(=O)N[C@@H](Cc2ccc(OCCN)cc2)C(=O)N[C@@H](Cc2ccc3ccccc3c2)C(=O)NC2(C(=O)N[C@@H](CCN(C)C(C)=O)C(=O)N[C@@H](CC(N)=O)C(=O)N[C@@H](Cc3cccnc3)C(=O)N(C)CC(=O)N(C)C)CCC(F)(F)C2)NC1=O (single isomer, unassigned) [compound 179, cPEG3aCO-Pen(3)-N(N(Me)2)-T-7MeW-K(NMeAc)-Pen(3)-AEF-2Nal-diFCpx-Dab(NMeAc)-N-3Pya-Sar-CON(Me)2]	3	147	–	–
CNCCOc1ccc(C[C@H](NC(=O)[C@H]2NC(=O)[C@H](CCCCN(C)C(C)=O)NC(=O)[C@H](Cc3c[nH]c4c(C)cccc34)NC(=O)[C@H]([C@@H](C)O)NC(=O)[C@H](CC(=O)NC)NC(=O)[C@@H](NC(C)=O)C(C)(C)SSC2(C)C)C(=O)N[C@@H](Cc2ccc3ccccc3c2)C(=O)NC2(C(=O)N[C@@H](CCCCN(C)C(C)=O)C(=O)N[C@@H](CC(N)=O)C(=O)N[C@@H](Cc3cccnc3)C(=O)N(C)CC(=O)NC)CCOCC2)cc1 [SEQ ID 67] (Ac-[Pen]D(NHMe)T[Trp(7-Me)][Lys(Me)](Ac)[Pen]Y(X2)[2Nal][Thp][Lys(Me)](Ac)N[3Pal][Sar]-NHMe; disulfide 1-6 (inferred))	1050	150	–	184

The remaining lines, values ahead:

IC50 (IL-23R) [nM]	EPSA ([1]; read-out: EPSA) [A^2]	EPSA [1] [Å^2]	EPSA ([1]; listed as 2) [Å^2]	Compound
0.83	154	–	–	CC(=O)NC(COCCOCC[N+](C)(C)C)C(=O)N[C@@H]1C(=O)N[C@@H](CC(=O)N(C)C)C(=O)N[C@@H]([C@@H](C)O)C(=O)N[C@@H](Cc2c[nH]c3c(C)cccc23)C(=O)N[C@@H](CCCCN(C)C(C)=O)C(=O)N[C@H](C(=O)N[C@@H](Cc2ccc(OCCn3cc(CCCC[N+](C)(C)C)nn3)cc2)C(=O)N[C@@H](Cc2ccc3ccccc3c2)C(=O)NC2(C(=O)N[C@@H](CCCCN(C)C(C)=O)C(=O)N[C@@H](CC(N)=O)C(=O)N[C@@H](Cc3cccnc3)C(=O)N(C)CC(=O)N(C)C)CCOCC2)C(C)(C)SSC1(C)C (mixture of isomers) [compound 545, MeCO-APEG2Ser(RS)-Pen(3)-N(N(Me)2)-T-7MeW-K(NMeAc)-Pen(3)-Y(OTzlTMA4)-2Nal-THP-K(NMeAc)-N-3Pya-Sar-CON(Me)2]
4.5	185	–	–	CC(=O)NCCCC[C@@H]1NC(=O)[C@H](Cc2c[nH]c3c(C)cccc23)NC(=O)[C@H]([C@@H](C)O)NC(=O)[C@H](CC(N)=O)NC(=O)[C@@H](NC(=O)C(COCCOCC[N+](C)(C)C)NC(C)=O)C(C)(C)SSC(C)(C)[C@@H](C(=O)N[C@@H](Cc2ccc(OCCN)cc2)C(=O)N[C@@H](Cc2ccc3ccccc3c2)C(=O)NC2(C(=O)N[C@@H](CCC(=O)O)C(=O)N[C@@H](CC(N)=O)C(=O)N[C@@H](Cc3cccnc3)C(=O)N(C)CC(N)=O)CCOCC2)NC1=O (mixture of isomers) [compound 553, MeCO-APEG2Ser(RS)-Pen(3)-N-T-7MeW-K(Ac)-Pen(3)-AEF-2Nal-THP-E-N-3Pya-Sar-CONH2]
3	171	–	–	CC(=O)NCCCC[C@H](NC(=O)C1(NC(=O)[C@H](Cc2ccc3ccccc3c2)NC(=O)[C@H](Cc2ccc(OCCN)cc2)NC(=O)[C@H]2NC(=O)[C@H](CCCCN(C)C(C)=O)NC(=O)[C@H](Cc3c[nH]c4c(C)cccc34)NC(=O)[C@H]([C@@H](C)O)NC(=O)[C@H](CC(N)=O)NC(=O)[C@@H](NC(=O)C(COCCOCC[N+](C)(C)C)NC(C)=O)C(C)(C)SSC2(C)C)CCOCC1)C(=O)N[C@@H](CC(N)=O)C(=O)N[C@@H](Cc1cccnc1)C(=O)N(C)CC(N)=O (mixture of isomers) [compound 554, MeCO-APEG2Ser(RS)-Pen(3)-N-T-7MeW-K(Ac)-Pen(3)-AEF-2Nal-THP-K(Ac)-N-3Pya-Sar-CONH2]
5.9	163	–	–	CC(=O)NCCCC[C@@H]1NC(=O)[C@H](Cc2c[nH]c3c(C)cccc23)NC(=O)[C@H]([C@@H](C)O)NC(=O)[C@H](CC(N)=O)NC(=O)[C@@H](NC(=O)C(COCCOCC[N+](C)(C)C)NC(C)=O)C(C)(C)SSC(C)(C)[C@@H](C(=O)N[C@@H](Cc2ccc(OCCCCC[N+](C)(C)C)cc2)C(=O)N[C@@H](Cc2ccc3ccccc3c2)C(=O)NC2(C(=O)N[C@@H](CCCCNC(C)=O)C(=O)N[C@@H](CC(N)=O)C(=O)N[C@@H](Cc3cccnc3)C(=O)N(C)CC(N)=O)CCOCC2)NC1=O (mixture of isomers) [compound 556, MeCO-APEG2Ser(RS)-Pen(3)-N-T-7MeW-K(Ac)-Pen(3)-TMAPF-2Nal-THP-K(Ac)-N-3Pya-Sar-CONH2]
3.7	–	165.96	–	CC(=O)NCCCC[C@@H]1NC(=O)[C@H](Cc2c[nH]c3c(C)cccc23)NC(=O)[C@H]([C@@H](C)O)NC(=O)[C@H](CC(N)=O)NC(=O)[C@@H](NC(C)=O)C(C)(C)SSC(C)(C)[C@@H](C(=O)N[C@@H](Cc2ccc(OCC3CCC([N+](C)(C)C)CC3)cc2)C(=O)N[C@@H](Cc2ccc3ccccc3c2)C(=O)NC2(C(=O)N[C@@H](CCCCNC(C)=O)C(=O)N[C@@H](CC(N)=O)C(=O)N[C@@H](Cc3cccnc3)C(=O)N(C)CC(N)=O)CCOCC2)NC1=O (single isomer, unassigned) [compound 531, MeCO-Pen(3)-N-T-7MeW-K(Ac)-Pen(3)-ACHMF(R*, S*)-2Nal-THP-K(Ac)-N-3Pya-Sar-CONH2]
